Experimental data: patent publication US8802597B2, “Herbicidal pyrimidines” (E I du Pont de Nemours and Company, priority 2003, dated 2014)

Experiments:
Assay type in all cases: in vivo
rice (Oryza sativa) = assay: Test B flooded paddy test; conditions: Flood, scale 0 to 100
Method in brief: (§1)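 Visual injury scoring (0 = no effect, 100 = complete control) versus controls made 13 to 15 days after treatment in the greenhouse. Test species were grown in flooded paddy to the 2-leaf stage: rice, barnyardgrass, umbrella sedge, duck salad.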

[1] = tested on: umbrella sedge (Cyperus difformis); assay: Test B flooded paddy test; conditions: Flood, scale 0 to 100
Method in brief: as §1

[2] = tested on: duck salad (Heteranthera limosa); assay: Test B flooded paddy test; conditions: Flood, scale 0 to 100
Method in brief: as §1

[3] = tested on: barnyardgrass (Echinochloa crus-galli); assay: Test B flooded paddy test; conditions: Flood, scale 0 to 100
Method in brief: as §1

[4] = tested on: lambsquarters (Chenopodium album); assay: Test B pre/postemergence; conditions: for Lambsquarters plant response rating: Postemergence; for Plant response rating, Lambsquarters: Preemergence
Method in brief: (§2)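 Greenhouse whole-plant test; surfactant-containing non-phytotoxic solvent formulation; pre- and postemergence applications made simultaneously; post plants 2–18 cm, 1- to 4-leaf; visual scoring at 13–15 days on 0–100 scale relative to controls.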

[5] = tested on: cocklebur (Xanthium strumarium); assay: Test B pre/postemergence; conditions: for Cocklebur plant response rating: Postemergence; for Plant response rating, Cocklebur: Preemergence
Method in brief: as §2

[6] = tested on: morningglory (Ipomoea coccinea); assay: Test B pre/postemergence; conditions: for Morningglory plant response rating: Postemergence; for Plant response rating, Morningglory: Preemergence
Method in brief: as §2

[7] = tested on: velvetleaf (Abutilon theophrasti); assay: Test B pre/postemergence; conditions: for Velvetleaf plant response rating: Postemergence; for Plant response rating, Velvetleaf: Preemergence
Method in brief: as §2

[8] = tested on: wheat (Triticum aestivum); assay: Test B pre/postemergence; conditions: for Wheat plant response rating: Postemergence; for Plant response rating, Wheat: Preemergence
Method in brief: as §2

corn (Zea mays) = assay: Test B pre/postemergence; conditions: for Corn plant response rating: Postemergence; for Plant response rating, Corn: Preemergence
Method in brief: as §2

[9] = tested on: giant foxtail (Setaria faberii); assay: Test B pre/postemergence; conditions: for Foxtail, Giant plant response rating: Postemergence; for Plant response rating, Foxtail, Giant: Preemergence
Method in brief: as §2

[10] = tested on: crabgrass (Digitaria sanguinalis); assay: Test B pre/postemergence; conditions: for Crabgrass plant response rating: Postemergence; for Plant response rating, Crabgrass: Preemergence
Method in brief: as §2

[11] = tested on: Surinam grass (Brachiaria decumbens); assay: Test B pre/postemergence; conditions: for Surinam Grass plant response rating: Postemergence; for Plant response rating, Surinam Grass: Preemergence
Method in brief: as §2

[12] = tested on: pigweed (Amaranthus retroflexus); assay: Test B pre/postemergence; conditions: for Pigweed plant response rating: Postemergence; for Plant response rating, Pigweed: Preemergence
Method in brief: as §2

[13] = tested on: barnyardgrass (Echinochloa crus-galli); assay: Test B pre/postemergence; conditions: for Barnyardgrass plant response rating: Postemergence; for Plant response rating, Barnyardgrass: Preemergence
Method in brief: as §2

[14] = tested on: blackgrass (Alopecurus myosuroides); assay: Test B postemergence; conditions: scale 0 to 100 (0 no effect, 100 complete control)
Method in brief: as §2

wild oat (Avena fatua) = assay: Test B postemergence; conditions: scale 0 to 100 (0 no effect, 100 complete control)
Method in brief: as §2

[15] = 62 g ai/ha, scale 0 to 100 (0 no effect, 100 complete control)
[16] = 125 g ai/ha, scale 0 to 100 (0 no effect, 100 complete control)
[17] = 62 g ai/ha, scale 0 to 100, 0 no effect, 100 complete control

Nc1nc(-c2ccc(Cl)cc2)nc(C(=O)[O-])c1Cl.[Na+] [Compound 117]
0: Plant response rating, Corn (corn (Zea mays); [17])
100: Plant response rating, Ducksalad ([2]; 125 g ai/ha) | Plant response rating, Ducksalad ([2]; 500 g ai/ha) | Lambsquarters plant response rating [4, 16] | Plant response rating, Lambsquarters [4, 16] | Cocklebur plant response rating [5, 15] | Cocklebur plant response rating [5, 16] | Morningglory plant response rating [6, 16] | Velvetleaf plant response rating [7, 16] | Plant response rating, Surinam Grass [11, 16] | Pigweed plant response rating [12, 15] | Pigweed plant response rating [12, 16] | Plant response rating, Pigweed [12, 17] | Plant response rating, Pigweed [12, 16]
70: Plant response rating, Barnyardgrass ([3]; 500 g ai/ha) | Plant response rating, Velvetleaf [7, 17] | Wheat plant response rating [8, 16] | Surinam Grass plant response rating [11, 15] | Surinam Grass plant response rating [11, 16] | Blackgrass plant response rating ([14]; 125 g ai/ha)
90: Plant response rating, Sedge, Umbrella ([1]; 500 g ai/ha) | Lambsquarters plant response rating [4, 15] | Plant response rating, Lambsquarters [4, 17] | Plant response rating, Cocklebur [5, 16] | Velvetleaf plant response rating [7, 15] | Plant response rating, Velvetleaf [7, 16] | Corn plant response rating (corn (Zea mays); [15]) | Corn plant response rating (corn (Zea mays); [16]) | Plant response rating, Foxtail, Giant [9, 16] | Plant response rating, Crabgrass [10, 17] | Plant response rating, Crabgrass [10, 16] | Barnyardgrass plant response rating [13, 15] | Barnyardgrass plant response rating [13, 16]
10: Plant response rating, Morningglory [6, 17] | Plant response rating, Corn (corn (Zea mays); [16]) | Plant response rating, Barnyardgrass [13, 17]
60: Crabgrass plant response rating [10, 15] | Blackgrass plant response rating ([14]; 62 g ai/ha)
30: Plant response rating, Barnyardgrass [13, 16] | Oat, Wild plant response rating (wild oat (Avena fatua); 62 g ai/ha)
80: Plant response rating, Sedge, Umbrella ([1]; 125 g ai/ha) | Morningglory plant response rating [6, 15] | Plant response rating, Wheat [8, 16] | Foxtail, Giant plant response rating [9, 15] | Foxtail, Giant plant response rating [9, 16] | Crabgrass plant response rating [10, 16] | Plant response rating, Surinam Grass [11, 17]
20: Plant response rating, Rice (rice (Oryza sativa); 125 g ai/ha) | Plant response rating, Barnyardgrass ([3]; 125 g ai/ha) | Plant response rating, Morningglory [6, 16] | Plant response rating, Foxtail, Giant [9, 17]
50: Plant response rating, Rice (rice (Oryza sativa); 500 g ai/ha) | Plant response rating, Cocklebur [5, 17] | Wheat plant response rating [8, 15] | Plant response rating, Wheat [8, 17] | Oat, Wild plant response rating (wild oat (Avena fatua); 125 g ai/ha)
